Data as given in patent publication US9018212B2, “Pyridazine carboxamides as CCR2 receptor antagonists” (Boehringer Ingelheim International GmbH, priority 2010, dated 2015).

Each molecule was assayed against T1, CCR2 (Homo sapiens, UniProt P41597) (assay: CCR2 receptor membrane binding assay ([125I]MCP-1, THP-1 membranes, SPA beads)). Details: THP-1 cell membranes; [125I]MCP-1 displacement; bound radioactivity after 8 h; read-out: hKi.
T1 construct: Membranes were prepared from THP-1 cells; endogenous in cells; host or cells: THP-1 (human acute monocytic leukaemia cells), membrane preparation
T1 sequence (P41597 1-360 isoform P41597-2): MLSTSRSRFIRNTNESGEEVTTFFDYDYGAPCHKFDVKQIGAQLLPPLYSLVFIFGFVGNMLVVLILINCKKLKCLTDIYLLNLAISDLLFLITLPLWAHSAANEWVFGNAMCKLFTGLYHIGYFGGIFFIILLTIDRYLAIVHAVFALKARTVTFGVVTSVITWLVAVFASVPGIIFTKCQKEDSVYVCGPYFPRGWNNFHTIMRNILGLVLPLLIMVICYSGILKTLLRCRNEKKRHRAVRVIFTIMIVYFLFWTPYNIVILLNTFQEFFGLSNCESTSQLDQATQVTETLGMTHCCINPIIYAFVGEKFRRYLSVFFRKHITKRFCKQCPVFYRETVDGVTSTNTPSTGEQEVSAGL
Description: The above exemplary substances have been tested for binding to CCR2 using a binding assay as outlined herein below:
THP-1 cells (human acute monocytic leukaemia cells) were cultured under standardized conditions at 37° C. and 5% CO2 in a humidified incubator. THP-1 cells were cultivated in RPMI 1640 medium (Gibco 21875) containing 1% MEM-NEAA (Gibso 11140) 2 mM L-glutamine, 1.5 g/L sodium bicarbonate, 4.5 g/L glucose, 10 mM HEPES and 1.0 mM sodium pyruvate, 90%; 10% fetal calf serum (FCS Gibco 10500-064).
Membranes were prepared from THP-1 cells. THP-1 cells were centrifuged at 300×g at 4° C. for 10 min. The cell pellet was resuspended in Phosphate Buffer Saline (PBS, including 10 μM Pefabloc and a protease inhibitor mix ‘complete’, Boehringer Mannheim (1 tablet/50 ml)), to a concentration of […]. The membrane preparation was performed by disrupting the cells by nitrogen […] (at 50 bar, for 1 h) in a “Nitrogen Bombe” (Parr Instrument). Cell debris was removed by centrifugation (800×g at 4° C., 1 min). The supernatant was centrifuged at 80000×g, 4° C. for 30 min to sediment the cell membranes. Usually 50 mg of protein (Bradford assay) were yielded from 1×10E9 cells. The membranes were resuspended in 25 mM HEPES, 25 mM MgCl2, 1 mM CaCl2, 10% Glycerine for storage in aliquots at −80° C. in 25 mM HEPES, 25 mM MgCl2, 1 mM CaCl2, 10% Glycerine and stored at −80° C.
Perkin Elmer NEX 332 Jod 125 MCP-1, Stock: 2200 Ci/mmol solved in 2000 μl assay buffer, stored at −20° C. THP-1 membrane were adjusted with 25 mM HEPES, pH 7.2; 5 mM MgCl2; 0.5 mM CaCl2; 0.2% BSA assay buffer to a concentration of 2.5 μg/15 μl. Amersham Biosciences PVT-WGA Beads (RPNQ0001) were adjusted with assay buffer to a concentration of 0.24 mg/30 μl. For preparation of the membrane-bead-suspension membranes and beads were incubated for 30 min at RT under rotation (60 rpm) with a ratio of 1:2. Test compounds dissolved in 100% DMSO to a concentration of 10 mM and are further diluted with 100% DMSO to 1 mM. All additional compound dilutions were obtained with assay buffer, final 1% DMSO. Compounds, membrane-bead-suspension and [125I]MCP-1 (ca. 25000 cpm/10 μl) were incubated. Bound radioactivity was determined by scintillation counter after 8 h. Determination of affinity of test compounds (dissociation constant hKi) is calculated by iterative fitting of experimental data using the “easy sys” program, which is based on law of mass action (Schittkowski K. (1994), Numerische Mathematik, Vol. 68, 129-142).
For `CO[C@H]1COCC[C@H]1NC1CCN(C(=O)c2nncc(NC[C@H]3CCC[C@@H](c4ccc(C(F)(F)F)cc4)O3)c2C)CC1` [Example 15], the Ki was 6 nM. For `Cc1c(NC[C@H]2CCC[C@@H](c3ccc(OC(F)(F)F)cc3)O2)cnnc1C(=O)N1CCC(NC2CCOCC2F)CC1` (some centres unmarked) [Example 14], the Ki was 5 nM. For `CO[C@@H]1COCC[C@@H]1NC1CCN(C(=O)c2nncc(NC[C@H]3CCC[C@@H](c4ccc(OC(F)(F)F)cc4)O3)c2C)CC1` [Example 12], the Ki was 0.7 nM. Work on `Cc1c(NC[C@H]2CCC[C@@H](c3ccccc3)C2)cnnc1C(=O)N1CCC(NC2CCOCC2F)CC1` (some centres unmarked) [Example 18] yielded a Ki of 7 nM. `CO[C@@H]1COCC[C@@H]1NC1CCN(C(=O)c2nncc(NC[C@H]3CCC[C@@H](c4ccccc4)C3)c2C)CC1` [Example 10] showed a Ki of 3 nM. In the case of `COc1nnc(C(=O)N2CCC(N[C@H]3CCOC[C@H]3OC)CC2)c(C)c1NC[C@H]1CCC[C@@H](c2ccccc2)C1` [Example 3], the Ki is reported as 1 nM. Molecule `COc1nnc(C(=O)N2CCC(NC3CCOCC3OC)CC2)c(C)c1NCc1ccc(C(C)(C)C)cc1` (centres unmarked) [Example 2] has a Ki of 40 nM. Molecule `Cc1c(NC[C@H]2CCC[C@@H](c3ccc(C(F)(F)F)cc3)O2)cnnc1C(=O)N1CCC(NC2CCOCC2F)CC1` (some centres unmarked) [Example 19] has a Ki of 9 nM. Work on `Cc1c(Nc2ccc(Cl)c(Cl)c2)cnnc1C(=O)N1CCC(NC2CCOCC2F)CC1` (centres unmarked) [Example 21] yielded a Ki of 41 nM. For `Cc1c(N2CCc3ccc(C(F)(F)F)cc3C2)cnnc1C(=O)N1CCC(NC2CCOCC2F)CC1` (centres unmarked) [Example 20], the Ki was 54 nM. `COc1nnc(C(=O)N2CCC(N[C@@H]3CCOC[C@@H]3OC)CC2)c(C)c1NC[C@H]1CCC[C@@H](c2ccc(C(F)(F)F)cc2)O1` [Example 8] gave a Ki of 2 nM. With `CO[C@@H]1COCC[C@@H]1NC1CCN(C(=O)c2nncc(Nc3ccc(Cl)c(Cl)c3)c2C)CC1` [Example 22] the Ki was 4 nM. Work on `COc1nnc(C(=O)N2CCC(N[C@H]3CCOC[C@H]3OC)CC2)c(C)c1NC[C@H]1CCC[C@@H](c2ccc(C(F)(F)F)cc2)O1` [Example 7] yielded a Ki of 1 nM. `COC1COCCC1NC1CCN(C(=O)c2nncc(NCc3ccc(C(C)(C)C)cc3)c2C)CC1` (centres unmarked) [Example 9] was tested, and the Ki was 27 nM. `CO[C@H]1COCC[C@H]1NC1CCN(C(=O)c2nncc(N3CCc4ccc(C(F)(F)F)cc4C3)c2C)CC1` [Example 17] showed a Ki of 73 nM. Molecule `COc1nnc(C(=O)N2CCC(N[C@@H]3CCOC[C@@H]3OC)CC2)c(C)c1NC[C@H]1CCC[C@@H](c2ccc(C)cc2)O1` [Example 6] has a Ki of 4 nM. Work on `Cc1ccc([C@@H]2CCC[C@H](CNc3cnnc(C(=O)N4CCC(NC5CCOCC5F)CC4)c3C)O2)cc1` (some centres unmarked) [Example 13] yielded a Ki of 35 nM. `COC1COCCC1NC1CCN(C(=O)c2nnc(C)c(NCc3ccc(C(C)(C)C)cc3)c2C)CC1` (centres unmarked) [Example 23] showed a Ki of 128 nM. `COc1nnc(C(=O)N2CCC(N[C@H]3CCOC[C@H]3OC)CC2)c(C)c1NC[C@H]1CCC[C@@H](c2ccc(OC(F)(F)F)cc2)O1` [Example 5] showed a Ki of 3 nM. `CO[C@@H]1COCC[C@@H]1NC1CCN(C(=O)c2nncc(NC[C@H]3CCC[C@@H](c4ccc(C(F)(F)F)cc4)O3)c2C)CC1` [Example 16] gave a Ki of 3 nM. Molecule `COc1nnc(C(=O)N2CCC(N[C@H]3CCOC[C@H]3OC)CC2)c(C)c1N1CCc2ccc(C(F)(F)F)cc2C1` [Example 4] has a Ki of 10 nM. `CO[C@@H]1COCC[C@@H]1NC1CCN(C(=O)c2nncc(N3CCc4ccc(C(F)(F)F)cc4C3)c2C)CC1` [Example 11] was tested, and the Ki was 16 nM. `COc1nnc(C(=O)N2CCC(N3CCC(N(C)S(C)(=O)=O)CC3)CC2)c(C)c1NCc1ccc(C(C)(C)C)cc1` [Example 1] gave a Ki of 60 nM.
